Values belong to the molecule of their own block, whether it stands above or below them. Where a SMILES comes first, the peptide text is derived from it. Bridges are numbered along the chain shown (N, C = ends). [ ]: non-standard residue; d: D form. R8 = C=CCCCCCC[C@@](C)(N)C(=O)O; S8 = C=CCCCCCC[C@](C)(N)C(=O)O; S5 = C=CCCC[C@](C)(N)C(=O)O
Experiments:
[1] = system: HEK293T Stop-Light cells; test: Cas9 RNP delivery, stop-light reporter gene editing (eGFP by FACS); format: cell-based; details: FIG. 5B
Text: Delivery of proteins is another important modality for the peptides of the present invention. In order to investigate the ability of the peptides to deliver protein, a stop-light reporter system was employed. FIG. 5A illustrates the stop-light reporter system, which is a quick and simple system to evaluate indel formation in stably transduced cells. Cells are transfected with a construct containing an mCherry gene followed by two enhanced green fluorescent protein (eGFP) genes that are shifted out of frame by +1 and +2 nucleotides, respectively. The mCherry gene is constituently expressed, while the eGFP genes are only expressed if a double stranded break in the linker creates insertions or deletions of +/−1 or 2 bp. This occurs upon the effective delivery of Cas9 RNP system to the nucleus of cells, which leads to one of the two eGFP genes being in frame and thus expressed. […]
5k HEK293T Stop-Light cells were treated with 50 ng ([…]) Cas9 that was formulated with various peptides at different peptide-to-Cas9 RNP MRs (50:1-100:1). After 72 h of treatment, eGFP expression was analysed by fluorescence-activated cell sorting (FACS) analysis. Gene editing efficiency was calculated as a percentage of cells in the cell population where eGFP expression was induced by the treatment.

[2] = system: HeLa pluc705 cells; test: HeLa pluc705 splice correction reporter, delivery of SSOs; format: cell-based; details: 100 nM 2'OMe SSO, 24 h, MR3-MR10, FIG. 1B
Text: To evaluate the ability of peptides of the invention to effectively deliver SSOs into cells, the HeLa pluc705 splice correction reporter system was used as a model (FIG. 1A). In this assay, HeLa cells are stably transfected with a luciferase endocing sequence that is interrupted by the β-globin pre-mRNA carrying a crypting splice site. If the SSO is effectively delivered to the cells and reaches the cell nucleus, it masks the aberrant splicing site (depicted ON-705 on the right-hand side of FIG. 1A). By redirecting the splicing, it will give rise to the production of functional luciferase protein. The luciferase enzyme activity thus acts as a measure to assess the delivery efficacy of the SSOs. This model is known for being an excellent positive read-out system with wide dynamic range for evaluating and comparing the delivery of SSOs and different delivery vectors.
The peptides were formulated with 2′-O-methyl phosphorothioate (2′OMe)-based SSOs at different peptide-to-SSO molar ratios (MRs), namely MR3, MR5, MR7 and MR10. The HeLa pluc705 cells were treated with various peptide/SSO nanoformulations at 100 nM SSO concentration for 24 h. After this time, the luciferase activity was measured. Delivery efficacy was expressed as a fold-increase over the values from untreated (UT) cells (ie. fold increase in splice correction).

[3] = system: HEK293T Stop-Light cells; test: Effect of additives on Cas9 RNP delivery, stop-light reporter; format: cell-based; details: FIG. 11
Experimental: In order to investigate the effect of additives on the efficacy of the peptides/nanoparticles of the invention a range of different additives were tested and the effect on delivery of Cas9 ribonuncleoprotein (RNP) was examined using the same stop-light reporter system described above and illustrated in FIG. 5.
Peptides Oct215 or Oct2815 were tested. Cas9 RNP was formulated in HBG buffer (HEPES buffered glucose) with either glycerol, PEG, PVP10, PVP55, PVA18, PVA40 or PVA-PEG. Oct215 or 2815 was added and incubated at room temperature for 40 min to allow peptide nanoparticles to form (1.1:1 sgRNA to Cas9 and 1:150 RNP:CPP).
Following incubation HEK293T Stop-Light cells were treated with the peptide RNP complex (25 ng Cas9 added to each well). After 72 h of treatment, eGFP expression was analysed by fluorescence-activated cell sorting (FACS) analysis. Gene editing efficiency was calculated as the percentage of eGFP expressing cells in the viable mCherry expressing population, mCherry being the marker for reporter construct expression and eGFP for gene editing of said construct.

[4] = In vivo delivery and biodistribution of Cy5-labelled SSO, IVIS imaging of dissected tissues; parameters: species or system NMRI mice; details: 2.5 mg/kg SSO, MR10, i.v., 48 h, FIG. 2(B)
Experimental: In order to investigate the in vivo delivery capacity and biodistribution profile of the peptide/SSO nanoparticles, Oct2815 peptide was formulated at a dose of 50 μg (2.5 mg/kg) of Cy5-labelled 2′-OMe/LNA mixmer-based SSO (at MR10) and then injected intravenously into NMRI mice. After 48 h of treatment, the fluorescence values were measured from the dissected tissues (brain, liver, lungs, heart, G.I. tract, spleen, muscles and kidneys) of the animals with an IVIS in vivo imager.

[5] = system: mice; test: Tolerability of peptide/mRNA formulation after intravenous injection; format: in vivo; details: 6.25 mg/kg of mRNA/25 mg/kg of peptide, i.v.
Experimental: Delivery of mRNA was tested using the 246, Oct815 and Oct2815 peptides and a luciferase-encoding mRNA (Luc mRNA). Various peptides were formulated at 1.25 mg/kg of mRNA dosing, at a peptide-to-mRNA weight ratio 4. Oct2815 was also formulated at 6.25 mg/kg of mRNA dosing, at a peptide-to-mRNA weight ratio 4. The formulations were subsequently injected intravenously into NMRI mice. After 24 h of treatment, the mice were sacrificed and the lungs, heart, liver, spleen and kidneys dissected. Luciferase activity was measured in the dissected tissues by bioluminescence imaging on an IVIS in vivo imaging system.
The peptides of the invention are believed to be tolerated in a dose of up to 30 mg/kg in mice, which is at least 10-fold higher than the dose commonly known to be tolerated when using any CPP of the prior art in vivo.

Molecule: H-L A K L A K A A(R8) A K L L K A A(S8) A K A L-NH2 (H-LAKLAKA[R8]AKLLKA[S8]AKAL-NH2; staple 8-15; SMILES CC(C)C[C@H](NC(=O)[C@H](C)NC(=O)[C@H](CCCCN)NC(=O)[C@H](C)NC(=O)[C@]1(C)CCCCCCC=CCCCCCC[C@@](C)(NC(=O)[C@H](C)NC(=O)[C@H](CCCCN)NC(=O)[C@H](C)NC(=O)[C@H](CC(C)C)NC(=O)[C@H](CCCCN)NC(=O)[C@H](C)NC(=O)[C@@H](N)CC(C)C)C(=O)N[C@@H](C)C(=O)N[C@@H](CCCCN)C(=O)N[C@@H](CC(C)C)C(=O)N[C@@H](CC(C)C)C(=O)N[C@@H](CCCCN)C(=O)N[C@@H](C)C(=O)N1)C(N)=O) [Oct815]
relative potency among peptides (Cas9 RNP gene editing) [1]: most potent | SSO delivery and splice switching activity (fold increase in splice correction, luciferase activity) [2]: able to mediate effective SSO delivery and induce strong splice switching activity

Molecule: H-L A(R8) K L A K A A A K L L K A A(S8) A K A L-NH2 (H-L[R8]KLAKAAAKLLKA[S8]AKAL-NH2; staple 2-15; SMILES CC(C)C[C@H](NC(=O)[C@H](C)NC(=O)[C@H](CCCCN)NC(=O)[C@H](C)NC(=O)[C@]1(C)CCCCCCC=CCCCCCC[C@@](C)(NC(=O)[C@@H](N)CC(C)C)C(=O)N[C@@H](CCCCN)C(=O)N[C@@H](CC(C)C)C(=O)N[C@@H](C)C(=O)N[C@@H](CCCCN)C(=O)N[C@@H](C)C(=O)N[C@@H](C)C(=O)N[C@@H](C)C(=O)N[C@@H](CCCCN)C(=O)N[C@@H](CC(C)C)C(=O)N[C@@H](CC(C)C)C(=O)N[C@@H](CCCCN)C(=O)N[C@@H](C)C(=O)N1)C(N)=O) [Oct215]
gene editing efficiency (efficacy of cargo delivery) with PVA-PEG ([3]; 25 ng Cas9, 1:150 RNP:CPP, HBG buffer with PVA-PEG, 72 h): up to 60% | effect of additives on efficacy [3]: enhanced still further by the presence of different additives

accumulation of SSO in liver in comparison with SSO alone (fold enrichment) [4]: 2.5 fold | accumulation of SSO in lungs in comparison with SSO alone (fold enrichment) [4]: 3.5 fold | accumulation of SSO in spleen in comparison with SSO alone (fold enrichment) [4]: 5 fold
Molecule: C=CCCCCCC[C@@](C)(NC(=O)[C@H](C)NC(=O)[C@H](CCCCN)NC(=O)[C@H](C)NC(=O)[C@H](CC(C)C)NC(=O)[C@H](CCCCN)NC(=O)[C@@](C)(CCCCCCC=C)NC(=O)[C@@H](N)CC(C)C)C(=O)N[C@@H](C)C(=O)N[C@@H](CCCCN)C(=O)N[C@@H](CC(C)C)C(=O)N[C@@H](CC(C)C)C(=O)N[C@@H](CCCCN)C(=O)N[C@@H](C)C(=O)N[C@@](C)(CCCCCCC=C)C(=O)N[C@@H](C)C(=O)N[C@@H](CCCCN)C(=O)N[C@@H](C)C(=O)N[C@@H](CC(C)C)C(N)=O [Oct2815, H-L A(R8) K L A K A A(R8) A K L L K A A(S8) A K A L-NH2] (H-L[R8]KLAKA[R8]AKLLKA[S8]AKAL-NH2)
side-effects at very high dosing [5]: without any apparent side-effects

Molecule: H-L A K L A K A A(R8) A K L L K A A(S5) A K A L-NH2 (H-LAKLAKA[R8]AKLLKA[S5]AKAL-NH2; staple 8-15; SMILES CC(C)C[C@H](NC(=O)[C@H](C)NC(=O)[C@H](CCCCN)NC(=O)[C@H](C)NC(=O)[C@]1(C)CCCC=CCCCCCC[C@@](C)(NC(=O)[C@H](C)NC(=O)[C@H](CCCCN)NC(=O)[C@H](C)NC(=O)[C@H](CC(C)C)NC(=O)[C@H](CCCCN)NC(=O)[C@H](C)NC(=O)[C@@H](N)CC(C)C)C(=O)N[C@@H](C)C(=O)N[C@@H](CCCCN)C(=O)N[C@@H](CC(C)C)C(=O)N[C@@H](CC(C)C)C(=O)N[C@@H](CCCCN)C(=O)N[C@@H](C)C(=O)N1)C(N)=O) [compound 246]
SSO delivery and splice switching activity (fold increase in splice correction, luciferase activity) [2]: able to mediate effective SSO delivery and induce strong splice switching activity

— patent publication US20230227500A1, “NANOPARTICLE-LIKE DELIVERY SYSTEM” (Evox Therapeutics Ltd, priority 2019, published 2023)
